# What was measured:
# [1] = Inhibition of CCDC6/RET (unknown origin) transfected in human LC2/ad cells assessed as reduction in cell viability incubated for 6 days by CellTiter Glo assay
# [2] = Inhibition of RET (unknown origin) transfected in mouse Ba/F3 cells assessed as reduction in cell viability incubated for 48 hrs by brightglo-luciferase reporter gene assay
# [3] = Inhibition of BLK (unknown origin) transfected in mouse Ba/F3 cells assessed as reduction in cell viability incubated for 48 hrs by brightglo-luciferase reporter gene assay
# [4] = Inhibition of BMX (unknown origin) transfected in mouse Ba/F3 cells assessed as reduction in cell viability incubated for 48 hrs by brightglo-luciferase reporter gene assay
# [5] = Inhibition of FGR (unknown origin) transfected in mouse Ba/F3 cells assessed as reduction in cell viability incubated for 48 hrs by brightglo-luciferase reporter gene assay
# [6] = Inhibition of FMS (unknown origin) transfected in mouse Ba/F3 cells assessed as reduction in cell viability incubated for 48 hrs by brightglo-luciferase reporter gene assay
# [7] = Inhibition of KDR (unknown origin) transfected in mouse Ba/F3 cells assessed as reduction in cell viability incubated for 48 hrs by brightglo-luciferase reporter gene assay
# [8] = Inhibition of LCK (unknown origin) transfected in mouse Ba/F3 cells assessed as reduction in cell viability incubated for 48 hrs by brightglo-luciferase reporter gene assay
# [9] = Inhibition of LYN (unknown origin) transfected in mouse Ba/F3 cells assessed as reduction in cell viability incubated for 48 hrs by brightglo-luciferase reporter gene assay
# [10] = Inhibition of MER (unknown origin) transfected in mouse Ba/F3 cells assessed as reduction in cell viability incubated for 48 hrs by brightglo-luciferase reporter gene assay
# [11] = Inhibition of MET (unknown origin) transfected in mouse Ba/F3 cells assessed as reduction in cell viability incubated for 48 hrs by brightglo-luciferase reporter gene assay
# [12] = Inhibition of RON (unknown origin) transfected in mouse Ba/F3 cells assessed as reduction in cell viability incubated for 48 hrs by brightglo-luciferase reporter gene assay
# [13] = Inhibition of ROS (unknown origin) transfected in mouse Ba/F3 cells assessed as reduction in cell viability incubated for 48 hrs by brightglo-luciferase reporter gene assay
# [14] = Inhibition of SRC (unknown origin) transfected in mouse Ba/F3 cells assessed as reduction in cell viability incubated for 48 hrs by brightglo-luciferase reporter gene assay
# [15] = Inhibition of SYK (unknown origin) transfected in mouse Ba/F3 cells assessed as reduction in cell viability incubated for 48 hrs by brightglo-luciferase reporter gene assay
# [16] = Inhibition of FLT1 (unknown origin) transfected in mouse Ba/F3 cells assessed as reduction in cell viability incubated for 48 hrs by brightglo-luciferase reporter gene assay
# [17] = Inhibition of FLT3 (unknown origin) transfected in mouse Ba/F3 cells assessed as reduction in cell viability incubated for 48 hrs by brightglo-luciferase reporter gene assay
# [18] = Inhibition of INSR (unknown origin) transfected in mouse Ba/F3 cells assessed as reduction in cell viability incubated for 48 hrs by brightglo-luciferase reporter gene assay
# [19] = Inhibition of JAK2 (unknown origin) transfected in mouse Ba/F3 cells assessed as reduction in cell viability incubated for 48 hrs by brightglo-luciferase reporter gene assay
# [20] = Inhibition of TIE1 (unknown origin) transfected in mouse Ba/F3 cells assessed as reduction in cell viability incubated for 48 hrs by brightglo-luciferase reporter gene assay
# [21] = Inhibition of TRKA (unknown origin) transfected in mouse Ba/F3 cells assessed as reduction in cell viability incubated for 48 hrs by brightglo-luciferase reporter gene assay
# [22] = Inhibition of TRKB (unknown origin) transfected in mouse Ba/F3 cells assessed as reduction in cell viability incubated for 48 hrs by brightglo-luciferase reporter gene assay
# [23] = Inhibition of TRKC (unknown origin) transfected in mouse Ba/F3 cells assessed as reduction in cell viability incubated for 48 hrs by brightglo-luciferase reporter gene assay
# [24] = Inhibition of FGFR1 (unknown origin) transfected in mouse Ba/F3 cells assessed as reduction in cell viability incubated for 48 hrs by brightglo-luciferase reporter gene assay
# [25] = Inhibition of FGFR2 (unknown origin) transfected in mouse Ba/F3 cells assessed as reduction in cell viability incubated for 48 hrs by brightglo-luciferase reporter gene assay
# [26] = Inhibition of FGFR3 (unknown origin) transfected in mouse Ba/F3 cells assessed as reduction in cell viability incubated for 48 hrs by brightglo-luciferase reporter gene assay
# [27] = Inhibition of FGFR4 (unknown origin) transfected in mouse Ba/F3 cells assessed as reduction in cell viability incubated for 48 hrs by brightglo-luciferase reporter gene assay
# [28] = Inhibition of IGF1R (unknown origin) transfected in mouse Ba/F3 cells assessed as reduction in cell viability incubated for 48 hrs by brightglo-luciferase reporter gene assay
# [29] = Inhibition of TYRO3 (unknown origin) transfected in mouse Ba/F3 cells assessed as reduction in cell viability incubated for 48 hrs by brightglo-luciferase reporter gene assay
# [30] = Inhibition of ZAP70 (unknown origin) transfected in mouse Ba/F3 cells assessed as reduction in cell viability incubated for 48 hrs by brightglo-luciferase reporter gene assay
# [31] = Inhibition of NPM/ALK (unknown origin) transfected in mouse Ba/F3 cells assessed as reduction in cell viability incubated for 48 hrs by brightglo-luciferase reporter gene assay
# [32] = Inhibition of TEL/KDR (unknown origin) transfected in mouse Ba/F3 cells assessed as reduction in cell viability incubated for 48 hrs by brightglo-luciferase reporter gene assay
# [33] = Inhibition of KIF5B-RET (unknown origin) transfected in mouse Ba/F3 cells assessed as reduction in cell viability incubated for 48 hrs by brightglo-luciferase reporter gene assay
# [34] = Inhibition of PDGFRbeta (unknown origin) transfected in mouse Ba/F3 cells assessed as reduction in cell viability incubated for 48 hrs by brightglo-luciferase reporter gene assay
# [35] = Inhibition of PDGFRalpha (unknown origin) transfected in mouse Ba/F3 cells assessed as reduction in cell viability incubated for 48 hrs by brightglo-luciferase reporter gene assay
# [36] = Inhibition of KIF5B-RET V804M mutant (unknown origin) transfected in mouse Ba/F3 cells assessed as reduction in cell viability incubated for 48 hrs by brightglo-luciferase reporter gene assay
# [37] = Inhibition of KIT (unknown origin) transfected in mouse Ba/F3 cells assessed as reduction in cell viability incubated for 48 hrs by brightglo-luciferase reporter gene assay
smiles,measurement,setting,value
COc1ccc(-c2cnn3c(N)c(-c4ccccc4)c(OC4CCN(C)CC4)nc23)cc1OC,IC50,[1],95 nM
same,IC50,[2],170 nM
same,IC50,[3],520 nM
same,IC50,[4],> 11000 nM
same,IC50,[5],98 nM
same,IC50,[6],400 nM
same,IC50,[7],> 11000 nM
same,IC50,[8],110 nM
same,IC50,[9],410 nM
same,IC50,[10],> 11000 nM
same,IC50,[11],> 11000 nM
same,IC50,[12],> 11000 nM
same,IC50,[13],> 11000 nM
same,IC50,[14],120 nM
same,IC50,[15],7600 nM
same,IC50,[16],> 11000 nM
same,IC50,[17],1700 nM
same,IC50,[18],> 11000 nM
same,IC50,[19],> 1300 nM
same,IC50,[20],> 11000 nM
same,IC50,[21],> 11000 nM
same,IC50,[22],> 11000 nM
same,IC50,[23],> 11000 nM
same,IC50,[24],> 5600 nM
same,IC50,[25],3700 nM
same,IC50,[26],> 9800 nM
same,IC50,[27],> 11000 nM
same,IC50,[28],> 11000 nM
same,IC50,[29],> 11000 nM
same,IC50,[30],> 11000 nM
same,IC50,[31],8300 nM
same,IC50,[32],1400 nM
same,IC50,[33],37 nM
same,IC50,[34],100 nM
same,IC50,[35],93 nM
same,IC50,[36],1800 nM
CN1C(C)(C)CC(Nc2nc3c(-c4ccc(C(=O)N5C[C@@H]6C[C@H]5CO6)cc4)cnn3c(N)c2-c2ccccc2)CC1(C)C,IC50,[1],16 nM
same,IC50,[32],1300 nM
same,IC50,[33],5.4 nM
COc1ccc(-c2cnn3c(N)c(-c4ccccc4)c(NC4CCN(C)CC4)nc23)cc1OC,IC50,[1],56 nM
same,IC50,[32],3100 nM
same,IC50,[33],31 nM
COc1ccc(-c2cnn3c(N)c(-c4ccccc4)c(NCCCN(C)C)nc23)cc1OC,IC50,[32],> 7900 nM
same,IC50,[33],56 nM
COc1ccc(-c2cnn3c(N)c(-c4ccccc4)c(OC4CCNCC4)nc23)cc1OC,IC50,[1],160 nM
same,IC50,[32],3600 nM
same,IC50,[33],79 nM
COC(=O)N1CCN(C(=O)c2ccc(-c3cnn4c(N)c(-c5ccccc5)c(NC5CC(C)(C)N(C)C(C)(C)C5)nc34)cc2)CC1,IC50,[1],15 nM
same,IC50,[32],890 nM
same,IC50,[33],3.3 nM
COc1ccc(-c2cnn3c(N)c(-c4ccccc4)c(OCCCN(C)C)nc23)cc1OC,IC50,[32],3000 nM
same,IC50,[33],70 nM
COc1ccc(-c2cnn3c(N)c(-c4nccs4)c(OC4CCN(C)CC4)nc23)cc1OC,IC50,[2],210 nM
same,IC50,[3],8200 nM
same,IC50,[4],> 11000 nM
same,IC50,[5],4100 nM
same,IC50,[6],4300 nM
same,IC50,[7],240 nM
same,IC50,[37],1600 nM
same,IC50,[8],1200 nM
same,IC50,[9],1500 nM
same,IC50,[10],> 8700 nM
same,IC50,[11],> 11000 nM
same,IC50,[12],> 11000 nM
same,IC50,[13],> 11000 nM
same,IC50,[14],2400 nM
same,IC50,[15],> 11000 nM
same,IC50,[16],> 11000 nM
same,IC50,[17],> 11000 nM
same,IC50,[18],> 10000 nM
same,IC50,[19],3800 nM
same,IC50,[20],> 11000 nM
same,IC50,[21],> 11000 nM
same,IC50,[22],770 nM
same,IC50,[23],500 nM
same,IC50,[24],3100 nM
same,IC50,[25],3000 nM
same,IC50,[26],4900 nM
same,IC50,[27],4400 nM
same,IC50,[28],8700 nM
same,IC50,[29],> 11000 nM
same,IC50,[30],> 11000 nM
same,IC50,[31],> 11000 nM
same,IC50,[33],120 nM
same,IC50,[34],41 nM
same,IC50,[35],9 nM
same,IC50,[36],610 nM
CN1C(C)(C)CC(Nc2nc3c(-c4ccc(C(=O)N5CCN(S(C)(=O)=O)CC5)cc4)cnn3c(N)c2-c2ccccc2)CC1(C)C,IC50,[1],6.2 nM
same,IC50,[32],1100 nM
same,IC50,[33],6.3 nM
COc1ccc(-c2cnn3c(N)c(-c4ccccc4)c(NC4CC(C)(C)N(C)C(C)(C)C4)nc23)cc1OC,IC50,[1],5.3 nM
same,IC50,[32],990 nM
same,IC50,[33],1.7 nM
COC(=O)Nc1ccc(-c2c(OC3CCN(C)CC3)nc3c(-c4ccc(OC)c(OC)c4)cnn3c2N)cc1,IC50,[2],6 nM
same,IC50,[3],230 nM
same,IC50,[4],> 7400 nM
same,IC50,[5],440 nM
same,IC50,[6],82 nM
same,IC50,[7],26 nM
same,IC50,[37],20 nM
same,IC50,[8],2400 nM
same,IC50,[9],67 nM
same,IC50,[10],86 nM
same,IC50,[11],> 11000 nM
same,IC50,[12],6000 nM
same,IC50,[13],5500 nM
same,IC50,[15],1400 nM
same,IC50,[16],3000 nM
same,IC50,[17],3400 nM
same,IC50,[18],> 9100 nM
same,IC50,[19],84 nM
same,IC50,[20],> 10000 nM
same,IC50,[21],2800 nM
same,IC50,[22],2100 nM
same,IC50,[23],1400 nM
same,IC50,[24],10 nM
same,IC50,[25],8 nM
same,IC50,[26],430 nM
same,IC50,[27],35 nM
same,IC50,[28],> 7500 nM
same,IC50,[29],3700 nM
same,IC50,[30],9100 nM
same,IC50,[31],1200 nM
same,IC50,[33],6 nM
same,IC50,[34],22 nM
same,IC50,[35],17 nM
same,IC50,[36],19 nM

# Source: BindingDB's records for doi:10.1021/acsmedchemlett.0c00015 (The Genomics Institute of The Novartis Research Foundation, 2020)
